Where “and” joins values, the source holds several entries; their conditions need not be identical. Equal entries are not always repeated. Where two headings read alike, the source gives them in different places. Starred links: 1 amine or outer side, 2 acyl side, 3 side chain; linkers in the order of their positions; H or OH if unused. Non-standard residues stand in square brackets, D forms with d. Residues, ends and D or L forms follow the SMILES beside them. *: point of attachment. NH(4-phenylbutyl) = c1ccc(CCCCN*)cc1; X1 = C[C@H](N[*:1])C(=O)C(=O)[*:2]; NHPhenethyl = c1ccc(CCN*)cc1
Key:
rhomboid protease GlpG = biological target: T1, rhomboid protease GlpG (Escherichia coli, UniProt P09391); test: progress-curve analysis of slow-binding inhibition of GlpG (Ki, kon, koff, modality); assay type: biochemical; conditions: for koff: Table 1; for Ki: true inhibitory constant, equals Kiapp (non-competitive)
T1 construct: made in house; host or cells: E. coli C41(DE3)
T1 sequence (P09391 whole entry): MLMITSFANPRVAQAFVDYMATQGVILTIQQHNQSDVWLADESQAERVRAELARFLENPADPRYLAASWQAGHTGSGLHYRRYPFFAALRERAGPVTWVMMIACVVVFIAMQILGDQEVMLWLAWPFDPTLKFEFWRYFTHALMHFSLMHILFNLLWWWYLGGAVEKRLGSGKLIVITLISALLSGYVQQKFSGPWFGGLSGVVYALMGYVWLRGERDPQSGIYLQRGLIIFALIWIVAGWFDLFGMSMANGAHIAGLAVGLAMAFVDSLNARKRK
Description: Figure 4 Mechanism of Inhibition of Rhomboid Protease GlpG by Peptidyl Ketoamides Analyzed Using Fluorogenic Transmembrane Peptide Substrates (A) Progress curves in the presence of increasing concentrations of compound 10 show biphasic character, which is typical for slow-binding inhibitors ([Copeland, 2013a], [Morrison, 1982]). GlpG (0.5 nM) was incubated with 25 μM substrate KSp93 in the presence of 0.05% (w/v) DDM and 0–1,333 nM 10. Fluorescence at 493 nm was followed to monitor substrate cleavage. (B) Biphasic progress curves characterized by an initial reaction rate (vi) and steady state reaction rate (vs). The progress curve at 1,333 nM compound 10 from the experiment in (A) is shown in detail, and both reaction rates obtained from non-linear regression into Equation (1) are shown as dotted lines. (C) Reversibility of inhibition by ketoamides was assessed by the rapid dilution method ([Harper et al., 1985], [Harper and Powers, 1985]). […] This solution was then rapidly diluted 100-fold either into the reaction buffer containing 10 μM substrate KSp64 ([Ticha et al., 2017]) (yielding final 10 nM inhibitor) or into the reaction buffer with 10 μM substrate KSp64 and 1,000 nM 10. For comparison, we used β-lactam L29 ([Pierrat et al., 2011]) at 1 μM and isocoumarin JLK6 ([Vinothkumar et al., 2010]) at 10 μM as known reversible and irreversible inhibitors of rhomboid proteases, respectively. Activity recovery was followed by measuring fluorescence over the course of 120 min with excitation at 553 nm and emission at 583 nm. (D) Progress curves of KSp93 cleavage at increasing concentrations of 10 measured under (A) were analyzed by non-linear regression as described for slow-binding inhibition ([Copeland, 2013a], [Morrison, 1982]) using GraphPad Prism version 7.02 for Windows (GraphPad Software, La Jolla, California, USA) to yield the rate constant for the onset of inhibition, kobs. […] Michaelis curves at the indicated inhibitor concentrations were measured by plotting vS (measured as in Figure 4B) against substrate concentration using 1 nM GlpG, 0.15% (w/v) DDM and highly sensitive substrate KSp96. […] The apparent inhibitory constants Kiapp (blue-red striped columns) and the constituent rate constants kon (red columns) and koff (blue columns) were determined from progress curve analysis as shown in (A and C) (note that Kiapp = koff/kon). […] TEXT PRINTED IN THE PICTURE: (D) compound 10: Ki^app = (123±47) nM; kon = (3.4±0.2)·10^-5 (nM^-1·min^-1); koff = (4.2±1.4)·10^-3 (min^-1) DOUBTS OF THE COPYIST ABOUT THIS PICTURE: compound 10, kon: the exponent is in very small print, read as -5 but could be -6 or -8 / compound 10, koff: the exponent is in very small print, read as -3 but could be -5 […]

VcROM = test: activity-based probe competition assay, rhomboid panel; assay type: biochemical, Vibrio cholerae; conditions: 50 μM and 0.5 μM; outcompeted the ABP even at 500 nM
Text: Any enzyme inhibitors to be used as specific tools for cell biology or as starting points for drug development must show sufficient level of selectivity toward their intended target. This is particularly important for compounds that react with the catalytic nucleophile common to many serine hydrolases. […] To map the selectivity of peptidyl ketoamides more objectively and widely, we employed activity-based probe (ABP) competition assays that enable a more general and substrate-independent measurement of inhibitory potency, because they rely solely on the competition between a fluorescently labeled activity-based probe and the tested inhibitor ([Nguyen et al., 2015], [Serim et al., 2012]). […]
Figure 5 Selectivity of Peptidyl Ketoamides (A) Selectivity of compounds 9, 10, and 11 for nine rhomboid proteases was profiled using activity-based probe competition assay at 50 μM and 0.5 μM concentration. […] (B) Selectivity of compounds 9, 10, and 11 against human serine hydrolases was analyzed using EnPlex as described ([Bachovchin et al., 2014]).
For inhibitor selectivity profiling against rhomboid proteases ([Wolf et al., 2015]), 400 ng of a purified protein preparation of E. coli GlpG was diluted in 30 μL of reaction buffer (20 mM HEPES, pH 7.4, with 0.05% (w/v) DDM). […] Gels were scanned on a Typhoon Trio+ and analyzed using ImageJ. […]

Row | Structure (SMILES) | koff (rhomboid protease GlpG) [s⁻¹] | Ki (rhomboid protease GlpG; read-out: Ki) | competition with ABP labeling of VcROM (VcROM) | Ki (rhomboid protease GlpG; Ki) [nM]
1 | CC(=O)N[C@@H](CCCNC(=N)N)C(=O)N[C@H](C(=O)N[C@@H](CCCNC(=N)N)C(=O)N[C@@H](Cc1c[nH]cn1)C(=O)N[C@@H](C)C(=O)C(=O)NCCc1ccccc1)C(C)C [compound 9, Ac-RVRHA-CONH-phenylethyl] (Ac-RVRH[X1]-NHPhenethyl) | 0.0002 | 219 nM and 220 nM | potently competed | 
2 | CC(=O)N[C@@H](CCCNC(=N)N)C(=O)N[C@H](C(=O)N[C@@H](CCCNC(=N)N)C(=O)N[C@@H](Cc1c[nH]cn1)C(=O)N[C@@H](C)C(=O)C(=O)NCCCCc1ccccc1)C(C)C [compound 11, Ac-RVRHA-CONH-phenylbutyl] (Ac-RVRH[X1]-{NH(4-phenylbutyl)}) | 6.5e-05 |  | potently competed | 45 ± 8

Source: PMC5746060, “General and Modular Strategy for Designing Potent, Selective, and Pharmacologically Compliant Inhibitors of Rhomboid Proteases” (Cell Chemical Biology, 2017)
